Measurements from PMC11061149, “Protein mimetic 2D FAST rescues alpha synuclein aggregation mediated early and post disease Parkinson’s phenotypes” (Nature Communications, 2024).

Legend:
[1] = biological target: T1, 15N-labeled αS monomer (Homo sapiens, UniProt P37840); test: 2D 1H-15N HSQC NMR of 15N-labeled αS with ligand; type: binding; details: 70 µM 15N-αS + equimolar ligand, V/V0
T1 construct: purchased rpeptide, Bogart, GA
Experimental: A solution of ^15N αS was prepared by resuspending 1 mg of uniformly labeled ^15N αS (rpeptide, Bogart, GA) in 1 mL Milli-Q water to yield a 70 μM αS solution in 20 mM Tris-HCl pH 7.4, 100 mM NaCl. The protein was buffer exchanged to Milli-Q water, lyophilized, and stored at –80 °C. For the preparation of NMR experiments, the lyophilized ^15N αS powder was dissolved in the NMR buffer (300 μL, 20 mM NaPO4 pH 6.4, 5% D2O, v/v) to make a final concentration of 70 μM. The protein concentration was confirmed with a NanoDrop One (Thermo Scientific, Waltham, MA) at 280 nm using an extinction coefficient of 5960 M^-1cm^-1. The solutions were transferred into Shigemi BMS-005 NMR tube (Shigemi, Tokyo, Japan) and the two-dimensional ^1H-^15N HSQC NMR experiments were performed on a 600 MHz Bruker Avance Neo (CU Anschutz, NMR core facility, CO) instrument equipped with a triple resonance HCN cryoprobe. Data was collected at 12 °C on Topspin 4.9.0 software (Bruker, Billerica, MA). The HSQC spectra were recorded using a data matrix consisting of 1024 (t2, ^1H) × 160 (t1, ^15N) complex points. Resonance assignments were determined utilizing a previous publication[83] and the data analysis was performed using MestReNova software.
For the HSQC experiments titrating NS132 into ^15N αS, the same experimental conditions were used as above. Incrementally, NS132 was added to a single ^15N αS solution, mixed, kept at r.t. for 10 min and HSQC was recorded under the conditions stated above. For HSQC experiments containing pre-formed fibrils (PFF) of αS, 5.4 eq. of PFF solution (500 μM) was added to monomeric ^15N αS solution, and the spectra was recorded as previously stated.

[2] = biological target: T2, αS PMCA samples (Homo sapiens, UniProt P37840); test: Proteinase K digestion of PMCA samples; type: biochemical; details: cycle three to cycle five, in the presence of NS132
T2 construct: made in house; host or cells: E. coli BL21(DE3)
Experimental: A Protease K (PK) solution at 50 μg/mL (IBI Scientific, Dubuque, IA) in digestion buffer (10 mM Tris, pH 8.0, 2 mM CaCl2) was diluted (0.1 eq.) into 30 μL of PMCA solution (with or without NS132) and incubated for 30 min at 37 °C. Subsequently, the samples were diluted (1:1, v/v) in SDS Protein Gel Loading Dye 2× (Quality Biological, Gaithersburg, MD) and loaded on Mini-PROTEAN TGX Stain-Free Protein Gel (BioRad, Hercules, CA). The gel was stained using the Fairbanks staining method and imaged using ChemiDoc MP (BioRad, Hercules, CA).

Cc1ccc(NC(=O)c2ccc(NC(=O)c3ccc([N+](=O)[O-])c(NCCc4c[nH]c5ccccc45)n3)c(NCC3CCCCC3)n2)c(OCC(=O)O)n1 [NS132]
Change in volume of peaks, αS residue A11 [1]: 0.12 | Change in volume of peaks, αS residue A17 [1]: 0.33 | Change in volume of peaks, αS residue A18 [1]: 0.55 | Change in volume of peaks, αS residue A19 [1]: 0.15 | Change in volume of peaks, αS residue A56 [1]: 0.13 | Change in volume of peaks, αS residue A78 [1]: 0.03 | Change in volume of peaks, αS residue A89 [1]: 0.12 | Change in volume of peaks, αS residue A90 [1]: 0.08 | Change in volume of peaks, αS residue A107 [1]: 0.04 | Change in volume of peaks, αS residue E13 [1]: 0.05 | Change in volume of peaks, αS residue E20 [1]: 0.17 | Change in volume of peaks, αS residue E46 [1]: 0.14 | Change in volume of peaks, αS residue G14 [1]: 0.1 | Change in volume of peaks, αS residue G31 [1]: 0.08 | Change in volume of peaks, αS residue G36 [1]: 0.1 | Change in volume of peaks, αS residue G41 [1]: 0.31 | Change in volume of peaks, αS residue G68 [1]: 0.06 | Change in volume of peaks, αS residue G93 [1]: 0.04 | Change in volume of peaks, αS residue H50 [1]: 0.52 | Change in volume of peaks, αS residue K10 [1]: 0.12 | Change in volume of peaks, αS residue K12 [1]: 0.77 | Change in volume of peaks, αS residue K43 [1]: 0.42 | Change in volume of peaks, αS residue L38 [1]: 0.05 | Change in volume of peaks, αS residue L100 [1]: 0.09 | Change in volume of peaks, αS residue S42 [1]: 0.46 | Change in volume of peaks, αS residue S129 [1]: 0.14 | Change in volume of peaks, αS residue T22 [1]: 0.03 | Change in volume of peaks, αS residue T59 [1]: 0.26 | Change in volume of peaks, αS residue T64 [1]: 0.08 | Change in volume of peaks, αS residue T75 [1]: 0.22 | Change in volume of peaks, αS residue V3 [1]: 0.04 | Change in volume of peaks, αS residue V15 [1]: 0.61 | Change in volume of peaks, αS residue V16 [1]: 0.09 | Change in volume of peaks, αS residue V37 [1]: 0.08 | Change in volume of peaks, αS residue V40 [1]: 0.13 | Change in volume of peaks, αS residue V66 [1]: 0.04 | Change in volume of peaks, αS residue V77 [1]: 0.16 | Change in volume of peaks, αS residue V82 [1]: 0.09 | Change in volume of peaks, αS residue Y39 [1]: 0.21 | proteinase K (PK) resistance of PMCA samples, in words [2]: completely degraded
